According to patent publication US8929978B2, “Phototherapy devices and methods comprising optionally substituted terphenyl and quaterphenyl compounds” (Nitto Denko Corporation, priority 2011, dated 2015):

How the values were obtained:
[1] = tested on: person suffering from actinic keratoses; assay: Photodynamic treatment of actinic keratoses lesions with red OLED light; settings: 20% topical solution; illuminated about 14-18 hours after application with red OLED of Example 2
[2] = tested on: person suffering from presumed ocular histoplasmosis; settings: in vivo, iv
[3] = tested on: person suffering from pathological myopia; assay: Verteporphin activated by red OLED light in pathological myopia; type: in vivo; settings: about 6 mg/m^2 i.v.; retina illuminated about 15 minutes after start of infusion with red OLED
[4] = tested on: person suffering from age-related macular degeneration; assay: Verteporphin activated by red OLED light in age-related macular degeneration; type: in vivo; settings: about 6 mg/m^2 i.v.; retina illuminated about 15 minutes after start of infusion with red OLED
[5] = tested on: CHO-K1 (Chinese Hamster Ovarian Cancer, ATCC, CRL-2243) cell line; assay: Ex-vivo efficacy study with OLED Device A and ALA (MTT cell viability, microscopy)

For `Cl.NCC(=O)CCC(=O)O` [5-Aminolevulinic acid HCl], which “number or severity of the lesions after treatment” value [1] is on record?
Its value is “reduced”.

Which “patient's vision after treatment” value [2] does the source give for `C=Cc1c(C)c2cc3nc(cc4[nH]c(cc5nc(cc1[nH]2)C(C)=C5CCC(=O)O)c(CCC(=O)OC)c4C)[C@@]1(C)C3=CC=C(C(=O)OC)[C@H]1C(=O)OC` [Verteporphin] here?
The value was “stabilized”.

What about the “patient's vision after treatment” value [3] of the same compound?
Its value is “stabilized”.

What about the “patient's vision after treatment” value [4] of the same compound?
The value was “stabilized”.

With `NCC(=O)CCC(=O)O` [ALA, 5-aminolevulinic acid] as the compound, how does the “cell necrosis, 20 mW/cm^2 versus 10 mW/cm^2 output power” value ([5]; ALA 1 mM, irradiation time 25 min at 20 mW/cm^2 and 50 min at 10 mW/cm^2 (FIG. 17)) read?
Its value is “somewhat faster with 20 mW/cm^2 than 10 mW/cm^2”.

What about the “generation of PpIX (protoporphyrin IX) from ALA in cells” value ([5]; ALA 0.5, 1, 2 mM, about 16 hrs at 37° C., fluorescence emission at 635 nm) of the same compound?
The value was “confirmed”.

What about the cytotoxicity at 1000 µM ([5]; Cricetulus griseus, CHO-K1, light or radiation study, read-out: cells destroyed compared with the reference (MTT cell viability, light dosimetry)) of the same compound?
The cytotoxicity at 1000 µM was about 90%.

What about the “cell morphology under optical microscope after light irradiation” value ([5]; after about 25 J/cm^2 red light (630 nm) irradiation, leafy type cells transform to droplet type (FIG. 14)) of the same compound?
The value was “significant and irreversible cell death”.
